Like-named read-outs stand apart in the source and are kept apart here.
Legend:
[1] = rat, cited from earlier work
[2] = system: organic anion transporting polypeptide (OATP); parameters: method as in PMID 23794501; conditions: cited from earlier work
[3] = Naringenin concentration in milk of breastfeeding mothers on naringenin-restricted diet, before and after 250 ml red grapefruit juice (HPLC after deconjugation); format: in vivo; conditions: for k el / Cmax / AUC, mean / AUC, median: human milk; for k el: last points; for Cmax / AUC, mean / AUC, median: n 14; for AUC, mean / AUC, median: trapezoidal method
Source text: Prior to enrollment, each volunteer was informed about the course and aim of the study, and signed the informed consent. They were also provided with oral and written instructions on the diet that disallowed consumption of any naringenin-containing foods and beverages. The volunteers agreed to follow the diet and not to take any vitamin supplements or any other food supplements for the duration of their participation in the study. They followed the diet for a total of 5 days, refraining from eating foods containing larger quantities of naringenin, such as citrus fruits, citrus fruit juices, citrus fruit pulps, tomatoes and tomato-containing food products, aromatic herbs. For the first two days of the study (pre-exposure) the volunteers collected breast milk samples every 12 hours, each in the amount of four to six ml. On the third day of the study they drank a single 250 ml serving of red grapefruit juice (a 250 ml bottle) in the morning on an empty stomach. In this part of the experiment, the volunteers collected breast milk samples at the following time points: 0 (directly before drinking the juice) and 1, 2, 3, 4, 5, 6, 12, 18, 24, 36 hours post-exposure. Milk samples were collected from full breasts. Milk was collected into chemically pure disposable plastic test tubes.
The samples were frozen by the volunteers at –20°C, regularly collected from the volunteers by the investigator, transported in a laboratory deep freezer, and frozen to –80°C until analysis. Each sample was labelled with the volunteer's initials and with the date and time of sampling. During the study, we remained in constant telephone contact with the volunteers. A commercial 100% grapefruit juice originating from ecological farms in Israel, in 250 ml bottles, were used in the study. The juice was purchased from a local grocery wholesaler. All the bottles were labelled with the same lot number.
Naringenin was extracted according to the method described by Song et al. with minor changes. In brief, an aliquot (0.5 ml) of undiluted human milk was defatted two times with 2-ml of hexane. After the lipid removal, 25 μl of L-Ascorbic acid (2.7 mmol/l in ultrapure water), 25 μl of Na2-ethylenediaminetetraacetic acid (2.2 mmol/l in ultrapure water) and 3 ml of pepsin (40 mg/ml in 0.1 N HCl) were added. The samples were incubated in a ThermoMixer C (Eppendorf AG., Germany) for 15 min at 37°C and at 300 rpm. Then, the pH of the sample was adjusted to 4.5 with 1.0 N NaOH and 3.86 kU of β-glucuronidase with sulfatase contaminant was added. Afterwards the samples were incubated for 45 min at 37°C and at 300 rpm in a ThermoMixer C. After deconjugation the potential metabolites (glucuronides and sulfate derivatives) to aglycones using β-glucuronidase/sulfatase treatment, naringenin was extracted with a 3-ml aliquot of ethyl acetate of tree times, dried under vacuum and resuspended in 200 μl of mobile phase B before analysis.
Naringenin analysis was done on a Shimadzu HPLC system (Kyoto, Japan), equipped with binary pump (LC-20 AD), degasser (DGU-20A3), refrigerated autosampler (SIL-20 AC, set at 8°C), a column oven (CTO-20 AC, 30°C), a diode array detector (SPD-M20A) and a mass spectrometry detector (2010EV). Separations were performed on Kinetex XB-C18 column (100×2.1 mm, 2.6 μm particle size, Phenomenex) at 0.2 ml min^−1 flow rate. The mobile phase consisted of A: 0.4% formic acid in ultrapure water and B: 0.4% formic acid, 0.4% isopropyl alcohol in methanol. The initial conditions of gradient program were set at 98:2 (A/B) followed by a linear gradient to 55:45 (A/B) at 15 min, 20:80 (A/B) at 30 min, 98:2 (A/B) at 35 min and at 40 min, stop. The injection volume was 10 μl. Naringenin was quantified at 287 nm. MS spectra were acquired in positive ion mode over the range of m/z 50–500, both using SCAN and SIM acquisition mode (the set of SIM included 273,25 m/z). […]

[4] = female, human, in vivo, Mean naringenin concentration in human milk

O=C1C[C@@H](c2ccc(O)cc2)Oc2cc(O[C@@H]3O[C@H](CO)[C@@H](O)[C@H](O)[C@H]3O)cc(O)c21 [7-glucoside]
Time at which increase in serum naringenin concentration was observed ([1]; in vivo): three

O=C1C[C@@H](c2ccc(O)cc2)Oc2cc(O)cc(O)c21 [naringenin]
Inhibition of OATP [2]: potent inhibitor | Range of naringenin concentrations in initial (baseline) milk samples ([3]; female, human, in vivo): 420.86 to 1568.89 nmol/L | k el ([3]; female, human, in vivo, 250 ml, post-exposure segment, n 11, read-out: Kel (elimination constant), mean (converted)): 3.89e-06 s⁻¹ | k el ([3]; female, human, in vivo, 250 ml, post-exposure segment, n 11, read-out: Kel (elimination constant), median (converted)): 3.61e-06 s⁻¹ | Cmax ([3]; female, human, in vivo, 250 ml, post-exposure segment, read-out: Cmax, mean): 908 nM | Cmax ([3]; female, human, in vivo, 250 ml, post-exposure segment, read-out: Cmax, median): 714 nM | Mean naringenin concentration in human milk ([3]; female, human, in vivo, 4 h): 908.253 nmol/L | Mean naringenin concentration in human milk ([3]; female, human, in vivo, 12 h): 868.960 nmol/L | concentration at 0 h [3, 4]: 674 nM | concentration at 1 h [3, 4]: 773 nM | concentration at 2 h [3, 4]: 651 nM | concentration at 3 h [3, 4]: 649 nM | concentration at 4 h [3, 4]: 908 nM | concentration at 5 h [3, 4]: 704 nM | concentration at 6 h [3, 4]: 650 nM | concentration at 12 h [3, 4]: 869 nM | concentration at 18 h [3, 4]: 772 nM | concentration at 24 h [3, 4]: 728 nM | concentration at 36 h [3, 4]: 702 nM | concentration at -12 h [3, 4]: 702 nM | concentration at -24 h [3, 4]: 844 nM | concentration at -36 h [3, 4]: 910 nM | concentration at -48 h [3, 4]: 823 nM | k el ([3]; female, human, in vivo, pre-exposure segment, n 5, read-out: Kel (elimination constant), mean (converted)): 5.56e-06 s⁻¹ | k el ([3]; female, human, in vivo, pre-exposure segment, n 5, read-out: Kel (elimination constant), median (converted)): 5.56e-06 s⁻¹ | Cmax ([3]; female, human, in vivo, pre-exposure segment, read-out: Cmax, mean): 910 nM | Cmax ([3]; female, human, in vivo, pre-exposure segment, read-out: Cmax, median): 762 nM | Cmax ([3]; post-exposure segment, read-out: Cmax, mean): 908 nM | AUC, mean ([3]; post-exposure, 0 h to 36 h): 27419 (nmol/l)*h | AUC, median ([3]; post-exposure, 0 h to 36 h): 23715 (nmol/l)*h | AUC, mean ([3]; pre-exposure, -36 h to 0 h): 27455 (nmol/l)*h | AUC, median ([3]; pre-exposure, -36 h to 0 h): 26515 (nmol/l)*h | Time at which increase in serum naringenin concentration was observed ([1]; after feeding the compound): three

C[C@@H]1O[C@@H](O[C@H]2[C@H](Oc3cc(O)c4c(c3)O[C@H](c3ccc(O)cc3)CC4=O)O[C@H](CO)[C@@H](O)[C@@H]2O)[C@H](O)[C@H](O)[C@H]1O [naringin, 4’, 5,7-trihydroxyflavanone-7-rhamnoglucoside]
Time at which increase in serum naringenin concentration was observed ([1]; after feeding the compound): ten
